This test concerns osteocytes containing osteoclasts. Description: Pit formation assay (bone resorption inhibition on ivory slices). Format: cell-based, ICR mice. The conditions noted are these: compound 1 × 10^−5 M, ivory piece, 3 days culture; for inhibition at 10 µM: Mus musculus, Osteoclast, 72 h, 0% = no compound with rPTH 1×10^−8 M, 100% = no resorption cavity, read-out: Inhibiting rate; for Number of resorption cavity (mean ± SD): rPTH 1×10^−8 M. As to the method: ICR mice 11-12 days old (Charles River) were subjected to euthanasia through ether anesthesia, and disinfected by dipping in 70% ethanol immediately. Subsequently, a femur and a shank of a mouse was removed, chopped in an -MEM culture medium (Flow Labs Corp.) containing 5% FBS (Irving Scientific Corp.), 100 U/mL penicillin, and 100 µg/mL streptomycin. Supernatant obtained by pipetting was collected, washed with culture medium solution, suspended in a solution containing 5% FBS and -MEM culture medium to yield osteocytes containing osteoclasts. Supernatant of osteocyte suspending solution was taken 3 minutes after standing still to pass through meshes (Cell Strainer, 70 m, Falcon Corp.). The filtrate was adjusted to the concentration of 1 107 cells/mL to use for pit formation assay.
(2) Test by the pit formation assay
An ivory piece was cut into slices in 150 m thickness by using a precision, low speed cutter (Buehler Corp.) and punched to make a cylinderial holes in 6 mm diameter. The ivory piece was dipped in 70% ethanol, treated by sonication for 5 minutes twice, and washed with sterilized PBS three times and with culture medium twice. The ivory piece was put in pits of a 96-pit culture plate (Falcon Corp.), 100 μl of culture medium, that contains a chemical compound of the present invention adjusted to a concentration of 2×10^−5 M, was poured into each pit, and 100 μL of culture medium, that contains 1×10^7 osteocytes/mL previously prepared, into each pit (the final concentration of the compound was 1×10^−5 M), and finally cultivation was carried out in an incubator under 37° C. and 10% CO2 for 3 days. Then cells on an ivory piece were removed in 2 M sodium hydroxide solution, washed with water and methanol to stain resorption cavity with Coomassie Brilliant Blue and count numbers of absorbed cavities under a microscope. The inhibition rate of bone resorption was calculated on the basis that resorption cavity was assumed 0% in the case of no addition of the compound under the presence of rPTH (1×10^−8 M) in the solution and the case of no resorption cavity was assumed 100%. A good result was yielded in the same experiment with variation of resorption cavity numbers among experimental groups due to a difference among proportions of various cell in the solution, in which osteocytes were suspended, and also among the lot numbers of used animals.

For the compound `CC(C)CC(=O)C1C(=O)N(Cc2ccccc2)C(=O)N(Cc2ccccc2)C1=O` [Compound No. 1, 1,3-Dibenzyl-5-(3-methyl-1-oxobutyl)barbituric Acid], the inhibition at 10 µM is 99.2% and the “Number of resorption cavity (mean ± SD)” value is reported as 1.0 ± 0.5.
As for `CC(C)CCN1C(=O)C(C(=O)CC(C)C)C(=O)N(CCC(C)C)C1=O` [Compound No. 4, 1,3-Bis(3-methylbutyl)-5-(3-methyl-1-oxobutyl)barbituric Acid], the inhibition at 10 µM turned out to be 90.6% and the “Number of resorption cavity (mean ± SD)” value is listed as 21.1 ± 4.3.
Take `O=C(Cc1cccs1)C1C(=O)N(Cc2ccccc2)C(=O)N(Cc2ccccc2)C1=O` [Compound No. 3, 1,3-Dibenzyl-5-(2-thienylacetyl)barbituric Acid]: the inhibition at 10 µM stood at 96.7% and the “Number of resorption cavity (mean ± SD)” value worked out at 7.0 ± 1.7.
For `O=C(Cc1ccccc1)C1C(=O)N(Cc2ccccc2)C(=O)N(Cc2ccccc2)C1=O` [Compound No. 2, 1,3-Dibenzyl-5-(phenylacetyl)barbituric Acid], the inhibition at 10 µM amounted to 99% and the “Number of resorption cavity (mean ± SD)” value came out at 2.2 ± 0.6.

For the origin of these results see patent US6498164B1, “Barbituric acid derivative and preventive and therapeutic agent for bone and cartilage containing the same” (Aventis Pharma S.A., priority 1998, dated 2002).
